{"source": "patent US7384656B2", "about": "“Anti-allergy composition and related method” (Access Business Group International LLC, priority 2004, dated 2008)", "format_in_all_cases": "cell-based", "key": {"[1]": {"test_system": "LTC4 release, RBL-2H3 cells", "assay": "LTC4 release from IgE-sensitized, DNP-BSA stimulated RBL-2H3 cells (ELISA)", "details": "1 μg/ml", "protocol": "(§1) The methodology used to obtain the results of FIG. 9 will now be described. First, RBL-2H3 cells, available from ATCC (American Type Culture Collection) of Manassas, Va., were plated in 24 well plates at 5×10^4/well. Following adherence, the cells were exposed to the ingredients or combination of ingredients noted in FIG. 9, also referred to as samples. The samples were used at the concentrations noted in Table VI. Stock solutions of all samples were prepared in a solution of DMSO, ethanol, and water present in a ratio of 5:3:2 at 100 mg/ml. Each sample was then diluted in media to the final concentration. The cells were then incubated overnight with the samples. The following day a mouse anti-dinitrophenyl (DNP) IgE antibody, available from Sigma of St. Louis, Mo., was added to the cells at a final concentration of 1 ng/ml. The cells were incubated for 1.5 hr at 37° C. to allow binding of the IgE molecule to the cellular IgE receptor via the constant region of the antibody. Following this incubation period, the cells were washed twice. A solution containing DNP conjugated to BSA (DNP-BSA), available from Calbiochem of San Diego, Calif., was added to the cells at 0.5 ng/ml. […] Next, the measured OD450 data from the ELISA was inputted into a calibration graph to determine the amount by which histamine was reduced relative to an untreated control sample. […]"}, "[2]": {"test_system": "PGD2 release, RBL-2H3 cells", "assay": "PGD2 release from IgE-sensitized, DNP-BSA stimulated RBL-2H3 cells (ELISA)", "details": "10 μg/ml", "protocol": "as §1"}, "[3]": {"test_system": "histamine release, RBL-2H3 cells", "assay": "Histamine release from IgE-sensitized, DNP-BSA stimulated RBL-2H3 cells (ELISA)", "details": "for Percent Control of Histamine Release (Table VII): 10 ng/ml, in combinations each part at 10 ng/ml; for Percent Control, Histamine Release (Table VIII): 1 μg/ml", "protocol": "The methodology used to obtain the results of FIG. 9 will now be described. First, RBL-2H3 cells, available from ATCC (American Type Culture Collection) of Manassas, Va., were plated in 24 well plates at 5×10^4/well. Following adherence, the cells were exposed to the ingredients or combination of ingredients noted in FIG. 9, also referred to as samples. The samples were used at the concentrations noted in Table VI. Stock solutions of all samples were prepared in a solution of DMSO, ethanol, and water present in a ratio of 5:3:2 at 100 mg/ml. Each sample was then diluted in media to the final concentration. The cells were then incubated overnight with the samples. The following day a mouse anti-dinitrophenyl (DNP) IgE antibody, available from Sigma of St. Louis, Mo., was added to the cells at a final concentration of 1 ng/ml. The cells were incubated for 1.5 hr at 37° C. to allow binding of the IgE molecule to the cellular IgE receptor via the constant region of the antibody. Following this incubation period, the cells were washed twice. A solution containing DNP conjugated to BSA (DNP-BSA), available from Calbiochem of San Diego, Calif., was added to the cells at 0.5 ng/ml. The cells were incubated an additional 1 hr at 37° C. The supernatants were assayed for the presence of histamine, PGD2 and/or LTC4 using ELISA kits commercially available from Cayman Chemical of Ann Arbor, Mich. according to the manufacturer's specifications. Next, the measured OD450 data from the ELISA was inputted into a calibration graph to determine the amount by which histamine was reduced relative to an untreated control sample. An example of a histamine calibration graph is illustrated in FIG. 10. Suffice it to say that calibration graphs for PGD2 and LTC4 are similar. The calibration graph in FIG. 10 was generated by measuring the OD450 of multiple, known concentrations of purified histamine. As shown in the graph, the X-axis indicates the concentrations of the histamine in nanomolar; and the Y-axis indicates the OD450 derived from each of the concentrations. The line 120 connects the data points, while line 130 is a trend line corresponding to the equation in this particular embodiment of: Y=−0.0025X^2+0.2915X+2.0775 Equation 2 With the histamine calibration graph, the amount of histamine for each sample was determined, and the subsequent data was input into Table VI and FIG. 9 for comparative analysis."}, "[4]": {"test_system": "IgE secretion by U266 human myeloma cells", "assay": "IgE secretion by U266 human myeloma cells (IgE ELISA of supernatants)", "details": "for Percent Control, IgE Secretion (IgE) (Table VIII): 100 μg/ml (no concentration printed for Formula)", "protocol": "The methodology used to obtain the results of FIG. 3 will now be described. First, U266 human myeloma cells, available from ATCC of Manassas, Va. were plated in 96 well plates at 4×10^4/well. The cells were exposed to the sample combinations of ingredients listed in Table I, each combination referred to as a “sample.” Stock solutions of all samples were prepared in a solution of DMSO, ethanol, and water present in a ratio of 5:3:2 at 100 mg/ml. Each sample was then diluted to 100 μg/ml in media. Duplicate plates of each sample were prepared so that viability could be determined multiple times for each sample, with the results of the multiple samples averaged following treatment of the cells. The plates were incubated an additional 48 hours. Thereafter, the amount of IgE in the supernatants was measured using a conventional quantitative IgE ELISA kit available from Bethyl Laboratories of Montgomery, Tex. Next, the measured OD450 data from the IgE ELISA was inputted into a calibration graph, illustrated in FIG. 4, to determine the concentration of IgE in ng/ml in each supernatant. This calibration graph was generated by measuring the OD450 of multiple, known concentrations (in nanograms per ml) of purified IgE. As shown in the graph, the X-axis indicates the concentrations of the IgE in ng/ml; and the Y-axis indicates the OD450 derived from each of the concentrations. The line 100 connects the data points, while line 110 is a trend line corresponding to the equation in this particular embodiment of: Y=0.2909X−0.2527 Equation 1 With the IgE calibration graph, the amount of IgE for each sample was determined, and the subsequent data was input into FIG. 3 for comparative analysis."}, "[5]": {"details": "listed as Luteolin from Perilla seed"}}, "data": [{"smiles": "O=c1cc(-c2ccc(O)c(O)c2)oc2cc(O)cc(O)c12", "note": "[Luteolin]", "values": [{"measurement": "Percent Control LTC4 Release (Table VI)", "setting": "[1]", "value": 157, "unit": "%"}, {"measurement": "Percent Control of PGD2 Release (Table VI)", "setting": "[2]", "value": 68, "unit": "%"}, {"measurement": "Percent Control of Histamine Release (Table VII)", "setting": "[3]", "value": 88.1, "unit": "%"}, {"measurement": "Percent Control of Histamine Release (Table VII)", "setting": "[3]; listed as luteolin", "value": "about 88%"}, {"measurement": "Percent Control of Histamine Release (Table VII)", "setting": "[3]; listed as luteolin from Perilla leaf", "value": "about 88%"}, {"measurement": "Percent Control of Histamine Release (Table VI)", "setting": "[3]; 100 ng/ml", "value": 10, "unit": "%"}, {"measurement": "Percent Control, Histamine Release (Table VIII)", "setting": "[3]", "value": "about 100%"}, {"measurement": "Percent Control, Histamine Release (Table VIII)", "setting": "[3]; [5]", "value": 99.9, "unit": "%"}, {"measurement": "Percent Control, IgE Secretion (IgE) (Table VIII)", "setting": "[4]", "value": "about 95%"}, {"measurement": "Percent Control, IgE Secretion (IgE) (Table VIII)", "setting": "[4]; [5]", "value": 95.5, "unit": "%"}, {"measurement": "Percent Control IgE-Secretion (Table V)", "setting": "[4]; 100 μg/ml, relative to untreated control cells", "value": 53, "unit": "%"}]}]}
